From US20250313535A1, “ALPHA 4 BETA 7 INTEGRIN MODULATORS AND USES THEREOF” (DICE MOLECULES SV, INC., priority 2022, published 2025)
pIC50: −log10 of the molar value.

Key:
α4β1 integrin = α4β1 integrin (Homo sapiens (Human), UniProt P05556+P13612); experiment: Integrin Adhesion Assay: Protocol 5 (VCAM-coated plate, RPMI-8866 cells with stable LOF mutation of the ITGB7 gene); type: cell-based; conditions: RPMI-8866 cells with stable LOF mutation of the ITGB7 gene; read-out: Mean IC50 α4β1 KO^b
In short: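 RPMI-8866 B cells with CRISPR/Cas9 ITGB7 knockout (clonal, verified by flow cytometry) adhered to VCAM-coated wells for 1 h at 37° C in HEPES/NaCl buffer with 1 mM MnCl2, 0.1 mM CaCl2, 1% BSA, 1% DMSO. Bound cells quantified by CellTiter-Glo luminescence after washing; % inhibition versus DMSO and control, 4-parameter fit.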

α4β7 integrin = α4β7 integrin (Homo sapiens (Human), UniProt P13612+P26010); experiment: Integrin Adhesion Assay: Protocol 4 (MAdCAM-coated plate, RPMI-8866 cells with stable LOF mutation of the ITGB1 gene); type: cell-based; conditions: RPMI-8866 cells with stable LOF mutation of the ITGB1 gene; read-out: Mean IC50 α4β7 KO^a
Chain of α4β7 integrin (P13612 34-1032): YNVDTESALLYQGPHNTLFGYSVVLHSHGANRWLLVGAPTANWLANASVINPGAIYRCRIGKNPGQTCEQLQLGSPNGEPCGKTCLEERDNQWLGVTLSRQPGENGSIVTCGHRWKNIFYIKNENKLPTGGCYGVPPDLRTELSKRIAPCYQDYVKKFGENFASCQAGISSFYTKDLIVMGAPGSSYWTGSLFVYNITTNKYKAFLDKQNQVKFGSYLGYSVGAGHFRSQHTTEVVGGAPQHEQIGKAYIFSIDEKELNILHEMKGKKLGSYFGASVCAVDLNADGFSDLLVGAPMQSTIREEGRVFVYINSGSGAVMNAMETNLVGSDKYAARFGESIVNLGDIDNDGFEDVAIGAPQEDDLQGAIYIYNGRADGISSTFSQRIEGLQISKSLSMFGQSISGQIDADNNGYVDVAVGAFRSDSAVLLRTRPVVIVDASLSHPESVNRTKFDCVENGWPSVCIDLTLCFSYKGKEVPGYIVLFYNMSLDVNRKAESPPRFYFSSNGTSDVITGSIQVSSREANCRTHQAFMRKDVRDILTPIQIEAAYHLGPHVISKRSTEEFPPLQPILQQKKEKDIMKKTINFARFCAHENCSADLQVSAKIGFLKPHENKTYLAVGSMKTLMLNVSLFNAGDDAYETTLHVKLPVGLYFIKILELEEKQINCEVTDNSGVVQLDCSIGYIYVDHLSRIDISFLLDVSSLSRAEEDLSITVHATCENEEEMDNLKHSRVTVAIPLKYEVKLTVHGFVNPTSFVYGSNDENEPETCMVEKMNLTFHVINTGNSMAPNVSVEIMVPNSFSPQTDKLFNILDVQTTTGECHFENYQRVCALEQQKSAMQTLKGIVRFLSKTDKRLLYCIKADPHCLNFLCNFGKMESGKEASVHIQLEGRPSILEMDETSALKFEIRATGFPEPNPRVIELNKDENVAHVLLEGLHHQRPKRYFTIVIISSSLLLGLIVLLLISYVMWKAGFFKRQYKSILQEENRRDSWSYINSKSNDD
Chain of α4β7 integrin (P26010 20-798): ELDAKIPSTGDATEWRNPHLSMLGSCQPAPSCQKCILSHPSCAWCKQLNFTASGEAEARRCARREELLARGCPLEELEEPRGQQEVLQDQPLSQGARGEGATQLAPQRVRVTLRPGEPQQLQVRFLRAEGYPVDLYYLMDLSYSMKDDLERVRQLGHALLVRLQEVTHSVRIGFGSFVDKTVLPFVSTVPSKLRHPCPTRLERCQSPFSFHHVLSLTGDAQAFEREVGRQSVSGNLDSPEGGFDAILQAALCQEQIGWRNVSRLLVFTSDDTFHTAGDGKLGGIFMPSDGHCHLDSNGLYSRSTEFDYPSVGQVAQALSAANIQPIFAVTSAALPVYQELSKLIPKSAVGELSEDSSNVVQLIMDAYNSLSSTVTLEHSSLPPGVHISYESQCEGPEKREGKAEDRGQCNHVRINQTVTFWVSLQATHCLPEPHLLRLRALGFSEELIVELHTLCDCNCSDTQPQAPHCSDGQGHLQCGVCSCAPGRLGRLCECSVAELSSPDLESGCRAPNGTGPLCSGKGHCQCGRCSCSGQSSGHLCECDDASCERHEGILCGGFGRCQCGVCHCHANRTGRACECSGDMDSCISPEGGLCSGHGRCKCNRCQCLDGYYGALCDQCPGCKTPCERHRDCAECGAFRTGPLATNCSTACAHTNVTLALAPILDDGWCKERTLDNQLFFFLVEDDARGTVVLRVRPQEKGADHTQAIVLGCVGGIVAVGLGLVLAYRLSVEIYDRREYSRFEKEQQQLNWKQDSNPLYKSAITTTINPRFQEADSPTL
In short: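 RPMI-8866 cells with CRISPR/Cas9 knockout of ITGB1 (2×10^6/mL) were added to MAdCAM-coated wells with compound (1% DMSO) in HEPES/NaCl buffer with 1 mM MnCl2, 0.1 mM CaCl2 and 1% BSA, then incubated 1 h at 37 °C. After four washes, adherent cells were quantified by CellTiter-Glo luminescence. Percent inhibition versus DMSO and control compound was fitted to 4-parameter curves.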

Chain of α4β1 integrin (P13612 34-1032): as the sequence (P13612 34-1032) above
Chain of α4β1 integrin (P05556 21-798): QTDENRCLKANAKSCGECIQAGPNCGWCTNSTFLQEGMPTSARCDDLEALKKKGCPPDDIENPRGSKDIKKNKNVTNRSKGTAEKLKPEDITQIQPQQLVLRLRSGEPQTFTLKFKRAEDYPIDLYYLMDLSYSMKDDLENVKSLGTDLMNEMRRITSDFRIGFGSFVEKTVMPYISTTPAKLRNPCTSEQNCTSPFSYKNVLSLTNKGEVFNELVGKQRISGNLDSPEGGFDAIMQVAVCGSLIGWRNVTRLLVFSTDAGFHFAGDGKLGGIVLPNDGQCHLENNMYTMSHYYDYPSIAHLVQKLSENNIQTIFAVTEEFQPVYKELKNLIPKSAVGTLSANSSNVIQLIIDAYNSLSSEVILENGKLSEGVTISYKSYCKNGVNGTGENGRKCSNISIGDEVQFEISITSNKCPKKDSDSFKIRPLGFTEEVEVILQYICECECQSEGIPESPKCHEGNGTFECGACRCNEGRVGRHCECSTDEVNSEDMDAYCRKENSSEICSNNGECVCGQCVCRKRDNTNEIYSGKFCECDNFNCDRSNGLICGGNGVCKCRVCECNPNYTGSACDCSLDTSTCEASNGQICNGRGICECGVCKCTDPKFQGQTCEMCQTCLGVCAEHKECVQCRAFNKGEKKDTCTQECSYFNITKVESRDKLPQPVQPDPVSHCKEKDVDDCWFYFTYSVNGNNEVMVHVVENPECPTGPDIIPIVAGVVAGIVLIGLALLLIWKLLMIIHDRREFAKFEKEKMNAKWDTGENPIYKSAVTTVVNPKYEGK

SMILES | pIC50 (α4β1 integrin) | pIC50 (α4β7 integrin)
COc1cccc(CN2CCCCC2)c1-c1cccc2c(C[C@H](NC(=O)c3c(F)cccc3C(C)C)C(=O)O)cccc12 [Compound 540] | 6.00 to 7.00 | > 8.00
COc1cccc(CN2CCCCC2)c1-c1cccc2c(C[C@H](NC(=O)c3c(F)cccc3C(F)(F)F)C(=O)O)cccc12 [Compound 542] | 6.00 to 7.00 | > 8.00
COc1cccc(CN2CCCCC2)c1-c1cccc2c(C[C@H](NC(=O)c3c(F)ccc(F)c3C)C(=O)O)cccc12 [Compound 543] | < 6.00 | > 8.00
COc1cccc(CN2CCCCC2)c1-c1cccc2c(C[C@H](NC(=O)c3c(C)cc(C4CC(F)(F)C4)cc3F)C(=O)O)cccc12 [Compound 544] | 6.00 to 7.00 | > 8.00
CCc1cccc(F)c1C(=O)N[C@@H](Cc1cccc2c(-c3c(CN4CCCCC4)cccc3OC)cccc12)C(=O)O [Compound 546] | 6.00 to 7.00 | > 8.00
CC1(C(=O)N[C@@H](Cc2cccc3c(-c4nccc5ccc(CCCN6CCCCC6)cc45)cccc23)C(=O)O)CC2CCC(C1)N2CC(F)(F)F (some centres unmarked) [Compound 548] | < 6.00 | > 8.00
O=C(O)[C@H](Cc1cccc2c(-c3nccc4ccc(CCCN5CCCCC5)cc34)cccc12)NC(=O)C1(C(F)(F)F)CCNCC1 [Compound 549] | < 6.00 | > 8.00
O=C(O)[C@H](Cc1cccc2c(-c3ncc(CN4CCCCC4)c4ccccc34)cccc12)NC(=O)C1(C(F)(F)F)CCNCC1 [Compound 550] | < 6.00 | 7.00 to 8.00
COC(=O)[C@H](Cc1cccc2c(-c3c(OC)ccc(CN4C(C)CCC4C)c3OC)cccc12)NC(=O)c1c(C)cccc1F (some centres unmarked) [Compound 552] | 6.00 to 7.00 | > 8.00
O=C(O)[C@H](Cc1cccc2c(-c3nccc4c(CN5CC(F)C5)cccc34)cccc12)NC(=O)C1(C(F)(F)F)CCN(CC(F)(F)F)CC1 [Compound 556] | < 6.00 | > 8.00
O=C(O)[C@H](Cc1cccc2c(-c3nccc4c(CN5CCOCC5)cccc34)cccc12)NC(=O)C1(C(F)(F)F)CCN(CC(F)(F)F)CC1 [Compound 559] | < 6.00 | > 8.00
COc1ccc(CN(C)C)c(C(F)(F)F)c1-c1cccc2c(C[C@H](NC(=O)C3(C(F)(F)F)CCN(CC(F)(F)F)CC3)C(=O)O)cccc12 [Compound 563] | 6.00 to 7.00 | > 8.00
COc1cccc(CN2CCCCC2)c1-c1cccc2c(C[C@H](NC(=O)C3(C(F)(F)F)CCN(CC(F)(F)F)CC3)C(=O)O)cccc12 [Compound 566] | < 6.00 | > 8.00
COc1cccc(CCCN(C)C)c1-c1cccc2c(C[C@H](NC(=O)C3(C(F)(F)F)CCN(CC(F)(F)F)CC3)C(=O)O)cccc12 [Compound 567] | 6.00 to 7.00 | > 8.00
COc1ccc(CN2CCCCC2)c(OC)c1-c1cccc2c(C[C@H](NC(=O)c3c(F)cccc3C(C)C)C(=O)O)cccc12 [Compound 571] | < 6.00 | > 8.00
COc1ccc(CN2CCC(F)(F)CC2)c(OC)c1-c1cccc2c(C[C@H](NC(=O)C3(C(F)(F)F)CCN([C@H]4COC[C@H]4F)CC3)C(=O)O)cccc12 [Compound 573] | < 6.00 | > 8.00
O=C(O)[C@H](Cc1cccc2c(-c3ncc(CN4CCCCC4)c4ccccc34)cccc12)NC(=O)C1(C(F)(F)F)CCN(C2COC2)CC1 [Compound 577] | 6.00 to 7.00 | > 8.00
O=C(O)[C@H](Cc1cccc2c(-c3ncc(CN4CCCCC4)c4ccccc34)cccc12)NC(=O)C1(C(F)(F)F)CCN([C@@H]2COCC2(F)F)CC1 [Compound 578] | < 6.00 | > 8.00
O=C(O)[C@H](Cc1cccc2c(-c3ncc(CN4CCC(C(F)(F)F)CC4)c4ccccc34)cccc12)NC(=O)C1(C(F)(F)F)CCN(C2COC2)CC1 [Compound 580] | < 6.00 | > 8.00
CN(C)Cc1ccc2c(-c3cccc4c(C[C@H](NC(=O)C5(C(F)(F)F)CCN(CC(F)(F)F)CC5)C(=O)O)cccc34)nccc2c1 [Compound 584] | < 6.00 | 7.00 to 8.00
COc1ccc(CN(C)C)c(OC)c1-c1cccc2c(C[C@H](NC(=O)c3c(C)cccc3CN3CCC(F)(F)CC3)C(=O)O)cccc12 [Compound 588] | < 6.00 | 6.00 to 7.00
COc1ccc(CN(C)C)c(OC)c1-c1cccc2c(C[C@H](NC(=O)c3c(F)ccc(F)c3C)C(=O)O)cccc12 [Compound 589] | < 6.00 | > 8.00
CN(C)Cc1cccc2c(-c3cccc4c(C[C@H](NC(=O)C5(C(F)(F)F)CCN(C6COC6)CC5)C(=O)O)cccc34)nccc12 [Compound 591] | < 6.00 | > 8.00

Continued, values first:

pIC50 (α4β1 integrin) | pIC50 (α4β7 integrin) | SMILES
< 6.00 | 7.00 to 8.00 | Cn1c(=O)c(-c2cccc3c(C[C@H](NC(=O)C4(C(F)(F)F)CCN(CC#N)CC4)C(=O)O)cccc23)c(C(F)(F)F)c2ccccc21 [Compound 538]
< 6.00 | > 8.00 | O=C(O)[C@H](Cc1cccc2c(-c3nccc4ccc(CCCN5CCC(F)(F)CC5)cc34)cccc12)NC(=O)C1(C(F)(F)F)CCN(CC(F)(F)F)CC1 [Compound 539]
6.00 to 7.00 | > 8.00 | COc1cccc(CN2CCCCC2)c1-c1cccc2c(C[C@H](NC(=O)c3c(C)cc(NCC(F)(F)F)cc3F)C(=O)O)cccc12 [Compound 545]
6.00 to 7.00 | > 8.00 | O=C(O)[C@H](Cc1cccc2c(-c3nccc4ccc(CCCN5CCCCC5)cc34)cccc12)NC(=O)C1(C(F)(F)F)CCN(C2COC2)CC1 [Compound 547]
6.00 to 7.00 | > 8.00 | COC(=O)[C@H](Cc1cccc2c(-c3c(OC)ccc(CN(C)C)c3C(F)(F)F)cccc12)NC(=O)OC(C)(C)C [Compound 551]
6.00 to 7.00 | > 8.00 | O=C(O)[C@H](Cc1cccc2c(-c3nccc4c(CN5CCCC5)cccc34)cccc12)NC(=O)C1(C(F)(F)F)CCN(CC(F)(F)F)CC1 [Compound 553]
< 6.00 | 7.00 to 8.00 | O=C(O)[C@H](Cc1cccc2c(-c3nccc4c(CN5CCC(F)(F)CC5)cccc34)cccc12)NC(=O)C1(C(F)(F)F)CCN(CC(F)(F)F)CC1 [Compound 554]
< 6.00 | > 8.00 | O=C(O)[C@H](Cc1cccc2c(-c3ccc(CN4CCCCC4)c4ccncc34)cccc12)NC(=O)C1(C(F)(F)F)CCN(CC(F)(F)F)CC1 [Compound 555]
6.00 to 7.00 | > 8.00 | COc1ccc(CN(C)C)c(C)c1-c1cccc2c(C[C@H](NC(=O)c3c(C)cccc3F)C(=O)O)cccc12 [Compound 558]
< 6.00 | > 8.00 | O=C(O)[C@H](Cc1cccc2c(-c3nccc4c(CN5CCC(F)CC5)cccc34)cccc12)NC(=O)C1(C(F)(F)F)CCN(CC(F)(F)F)CC1 [Compound 560]
< 6.00 | > 8.00 | CC1(C)CCN(Cc2cccc3c(-c4cccc5c(C[C@H](NC(=O)C6(C(F)(F)F)CCN(CC(F)(F)F)CC6)C(=O)O)cccc45)nccc23)CC1 [Compound 561]
6.00 to 7.00 | > 8.00 | COc1ccc(CN2CCCCC2)c(C(F)(F)F)c1-c1cccc2c(C[C@H](NC(=O)c3c(C)cccc3F)C(=O)O)cccc12 [Compound 562]
6.00 to 7.00 | > 8.00 | COc1ccc(CN2CCCCC2)c(C(F)(F)F)c1-c1cccc2c(C[C@H](NC(=O)C3(C(F)(F)F)CCN(CC(F)(F)F)CC3)C(=O)O)cccc12 [Compound 564]
6.00 to 7.00 | > 8.00 | COc1ccc(CN2CCCC(C)(C)C2)c(OC)c1-c1cccc2c(C[C@H](NC(=O)c3c(C)cccc3F)C(=O)O)cccc12 [Compound 565]
6.00 to 7.00 | > 8.00 | COc1ccc(CN2CCC(C(F)(F)F)CC2)c(OC)c1-c1cccc2c(C[C@H](NC(=O)c3c(C)cccc3F)C(=O)O)cccc12 [Compound 569]
6.00 to 7.00 | > 8.00 | COc1ccc(CN2CCC(c3ccccc3)CC2)c(OC)c1-c1cccc2c(C[C@H](NC(=O)c3c(C)cccc3F)C(=O)O)cccc12 [Compound 570]
< 6.00 | 7.00 to 8.00 | COc1ccc(CN2CCCC(F)C2)c(C(F)(F)F)c1-c1cccc2c(C[C@H](NC(=O)c3c(C)cccc3F)C(=O)O)cccc12 (some centres unmarked) [Compound 572]
< 6.00 | 7.00 to 8.00 | COc1ccc(CN2CCC(F)CC2)c(C(F)(F)F)c1-c1cccc2c(C[C@H](NC(=O)c3c(C)cccc3F)C(=O)O)cccc12 [Compound 574]
6.00 to 7.00 | > 8.00 | COc1ccc(CN2CCCCC2)cc1-c1cccc2c(C[C@H](NC(=O)C3(C(F)(F)F)CCN(CC(F)(F)F)CC3)C(=O)O)cccc12 [Compound 575]
< 6.00 | > 8.00 | CC1(C(=O)N[C@@H](Cc2cccc3c(-c4ncc(CN5CCCCC5)c5ccccc45)cccc23)C(=O)O)CCN(CC(F)(F)F)CC1 [Compound 576]
6.00 to 7.00 | > 8.00 | COc1ccc(CN2CCC(C(C)(C)C)CC2)c(OC)c1-c1cccc2c(C[C@H](NC(=O)c3c(C)cccc3F)C(=O)O)cccc12 [Compound 579]
< 6.00 | > 8.00 | CN(C)Cc1cc(-c2cccc3c(C[C@H](NC(=O)c4c(F)cc(N5CCOC[C@@H]5C(F)(F)F)cc4CN4CCCC4)C(=O)O)cccc23)c2cnccc2c1 [Compound 587]
< 6.00 | > 8.00 | COc1ccc(CN2CC(F)C2)c(OC)c1-c1cccc2c(C[C@H](NC(=O)c3c(C)cccc3F)C(=O)O)cccc12 [Compound 590]
